Measurements: EP4755878A1, “PHOTOCHROMIC COMPOUND, PHENOL DERIVATIVE, CURABLE COMPOSITION, OPTICAL ARTICLE, LENS, AND EYEGLASS” (TOKUYAMA CORPORATION, priority 2023, dated 2025)

Experiments:
[1] = Photochromic properties of photochromic laminate (plastic lens) made by coating method; format: physicochemical; settings: for Color developing density at 23°C: absorbance difference after 240 seconds irradiation at 23°C; for Color developing density at 35°C: absorbance difference after 240 seconds irradiation at 35°C; for Maximum absorption wavelength: after color development, second absorption wavelength (lower line of pair)
Description: First, the photochromic compound obtained in Example 1 above, a photoinitiator, and polymerizable compounds were mixed to obtain a curable composition.
As the polymerizable compounds, a blend of the following radically-polymerizable monomers in combination was used.
• Polyethylene glycol dimethacrylate (average molecular weight: 736): 42 parts by mass • Polyethylene glycol dimethacrylate (average molecular weight: 536): 12 parts by mass • Trimethylolpropane trimethacrylate: 38 parts by mass • γ-Methacryloyloxypropyltrimethoxysilane: 2 parts by mass • Glycidyl methacrylate: 1 part by mass.
Note that in the curable composition, the photochromic compound obtained in Example 1 above was added to be 0.25 mmol taking the total amount of the radically-polymerizable monomers as 100 g. The following were used as additives.
(stabilizer, Irganox 245): 1 part by mass Bis(1,2,2,6,6-pentamethyl-4-piperidyl) sebacate: 3 parts by mass Leveling agent from DuPont Toray Specialty Materials K.K. (L7001): 0.1 parts by mass.
Note that the above-mentioned additives are described with blending ratios taking a total of the radically-polymerizable monomers as 100 parts by mass.
Using this curable composition, a photochromic laminate was obtained by a lamination process described below with the polymerization described below being carried out.
First, a thiourethane plastic lens with a center thickness of 2 mm and a refractive index of 1.60 was prepared as an optical substrate. Note that the thiourethane plastic lens had been alkaline-etched beforehand in a 10% aqueous sodium hydroxide solution at 50°C for 5 minutes, and then thoroughly washed with distilled water.
A spin coater (1H-DX2, manufactured by MIKASA CO., LTD) was used to coat a surface of the above-mentioned plastic lens with a moisture-curable primer (product name: TR-SC-P, manufactured by Tokuyama Corporation) at a rotation speed of 70 rpm for 15 seconds, followed by at 1000 rpm for 10 seconds. Then, about 2 g of the photochromic curable composition obtained as above was spin-coated at a rotation speed of 60 rpm for 40 seconds, followed by at 600 rpm for 10 to 20 seconds so as to achieve a photochromic coating layer with a film thickness of 40 µm.
The lens having the surface coated with the photochromic curable composition (photochromic coating layer) was irradiated with light for 90 seconds in a nitrogen gas atmosphere using a metal halide lamp with an output of 200 mW/cm^2 to cure the coating film. The coating was then further heated at 110°C for 1 hour to produce a photochromic laminate with a photochromic layer.
Photochromic laminates were produced using the photochromic compounds obtained in Examples 2 to 19 in the same manner as in Example 20.
Photochromic laminates were obtained in the same manner as in Example 20 using photochromic compounds represented by the following formulas (A) to (F). [drawing 143] [drawing 144] [drawing 145] [drawing 146] [drawing 147] [drawing 148] [drawing 149] [drawing 150]
The resulting photochromic laminates were evaluated by the methods described below.
Table 3 summarizes the results of Examples 20, 32, and 34, and Comparative Examples 1 to 6, and Table 4 summarizes the results of Examples 21 to 31, 33, and 35 to 38. The relationship between the fading half-life at 23°C and the color development ratio at the higher temperature of the photochromic laminates according to Examples and Comparative Examples are shown in a graph in FIG. 1.
Photochromic laminates were formed using the photochromic compound obtained in Examples 61 to 71 in the same manner as in Example 20.

[2] = Photochromic properties of photochromic layer (binder sheet) made by binder method; settings: for Color developing density at 23°C: absorbance difference after 240 seconds irradiation at 23°C; for Color developing density at 35°C: absorbance difference after 240 seconds irradiation at 35°C; for Maximum absorption wavelength: after color development, second absorption wavelength (lower line of pair)
Description: This is the maximum absorption wavelength after color development determined by a spectrophotometer manufactured by Otsuka Electronics Co., Ltd. (instantaneous multichannel photo detector MCPD3000) and was used as an index of a color tone upon color development.
This is a difference between an absorbance {ε(240)} after irradiation with light at the above-mentioned maximum absorption wavelength at 23°C for 240 seconds and an absorbance ε(0) when not irradiated with light, and was used as an index of a color developing density. The higher this value is, the better photochromic property is.
This is a difference between an absorbance {ε(240)} after irradiation with light at first and second absorption wavelengths at 35°C for 240 seconds and an absorbance ε(0) when not irradiated with light, and was used as an index of a color developing density. The higher this value is, the better photochromic property is.
Color developing density at 35°C (A35) /color developing density at 23°C (A23) × 100(%). The higher this value is, the smaller the difference in color developing density between the higher temperature and the lower temperature is, and the smaller the temperature dependence is.
This is the period of time required for the absorbance at a maximum absorption wavelength of a sample to decrease to 1/2 of {ε(240)-ε(0)}, when light irradiation is stopped after the sample had been irradiated with light at 23°C for 240 seconds, and was used as an index of a color fading rate. The shorter this period of time is, the higher the color fading rate is.
A binder sheet was made according to the following method. […] As the first and second optical sheets, polycarbonate sheets with a thickness of 400 µm were used.
Note that the photochromic compound was added to be 0.25 mmol relative to 100 parts by mass of the terminally non-reactive urethaneurea resin.

[3] = Photochromic properties of photochromic cured product made by kneading method; format: physicochemical; settings: for Maximum absorption wavelength: 1 mm, after color development, second absorption wavelength (lower line of pair); for Color developing density at 23°C: absorbance difference after 240 seconds irradiation at 23°C; for Color developing density at 35°C: absorbance difference after 240 seconds irradiation at 35°C
Description: First, the photochromic compound obtained in Example 1, additives, and polymerizable compounds were mixed to obtain a curable composition. As the polymerizable compounds, a blend of the following polymerizable monomers in combination was used. • 1,3-Bis(isocyanatomethyl)cyclohexane: 36.7 parts by mass Pentaerythritol tetrakis(3-mercaptopropionate): 39.4 parts by mass • Polyoxyethylene polyoxypropylene lauryl ether (WONDERSURF 140 from Aoki Oil Industrial Co., Ltd.): 17.4 parts by mass 1-Decanethiol: 2.8 parts by mass • RX-1 prepared according to the method described in Patent Document 12: 3.8 parts by mass Note that in the curable composition, the photochromic compound was added to be 0.106 mmol taking the total amount of the polymerizable monomers as 100 g.
The following additives were used. Dimethyltin dichloride: 0.05 parts by mass • Irganox 245 from BASF Japan Ltd.: 0.1 parts by mass • 2-Ethylhexyl 4-methoxycinnamate: 0.6 parts by mass
The prepared curable composition was sufficiently degassed, and then injected into a glass mold provided with a gap of 1 mm, and the curable composition was polymerized via casting polymerization. […] After the polymerization, the cured product was removed from the glass mold, to obtain photochromic cured product having a thickness of 1 mm. The resulting photochromic cured product was evaluated in the same manner as in Example 23.
(Examples 51 to 60, and Comparative Examples 11 to 14) Photochromic cured products were formed using the photochromic compound shown in Table 6 in the same manner as in Example 50.

Color developing density at 23°C ([1]; first absorption wavelength)	Color developing density at 23°C ([1]; second absorption wavelength)	Color developing density at 35°C ([1]; first absorption wavelength)	Color developing density at 35°C ([1]; second absorption wavelength)	Maximum absorption wavelength [1] [nm]	Color developing density at 23°C ([2]; first absorption wavelength)	Color developing density at 23°C ([2]; second absorption wavelength)	Color developing density at 35°C ([2]; first absorption wavelength)	Color developing density at 35°C ([2]; second absorption wavelength)	Maximum absorption wavelength [2] [nm]	Maximum absorption wavelength [3] [nm]	Color developing density at 23°C ([3]; first absorption wavelength)	Color developing density at 23°C ([3]; second absorption wavelength)	Color developing density at 35°C ([3]; first absorption wavelength)	Color developing density at 35°C ([3]; second absorption wavelength)	SMILES
0.87 -	1.02 -	0.63 -	0.75 -	608	0.90 -	1.04 -	0.63 -	0.74 -	608	616	0.90 -	1.04 -	0.66 -	0.78 -	COc1ccc(C2(c3ccc(OC)cc3)C=Cc3c4c(c5ccc(OC)cc5c3O2)-c2ccc(N3CCOc5ccccc53)cc2C4(C)C)cc1 [Formula (13-2)]
0.92 -	1.07 -	0.67 -	0.79 -	619	0.93 -	1.08 -	0.67 -	078 -	616	622	0.95 -	1.10 -	0.70 -	0.83 -	COc1ccc(C2(c3ccc(OC)cc3)C=Cc3c4c(c5ccc(OC)cc5c3O2)-c2ccc(N(c3ccccc3)c3ccccc3)cc2C4(C)C)cc1 [Formula (15-2)]
0.53 -	0.89 -	0.36 -	0.61 -	593	0.55 -	0.90 -	0.37 -	0.61 -	595	599	0.56 -	0.92 -	0.38 -	0.65 -	COCC1(COC)c2cc(N(C)c3ccccc3)ccc2-c2c1c1c(c3ccccc23)OC(c2ccc(OC)cc2)(c2ccc(OC)c(F)c2)C=C1 (stereo not drawn) [Formula (16-3)]
0.69 -	0.87 -	0.44 -	0.55 -	569	0.71 -	0.90 -	0.46 -	0.58 -	569	578	0.72 -	0.91 -	0.48 -	0.61 -	COc1ccc(C2(c3ccc(OC)cc3)C=Cc3c4c(c5ccc(OC)cc5c3O2)-c2ccccc2C4(C)C)cc1 [Formula (A), reference compound]
0.69 -	0.96 -	0.48 -	0.65 -	579	0.75 -	0.98 -	0.50 -	0.67 -	580	586	0.76 -	0.98 -	0.53 -	0.69 -	CCCCOc1ccc(C2(c3ccc(OCCCC)cc3)C=Cc3c4c(c5ccc(OC)cc5c3O2)-c2ccc(C)cc2C4(C)C)cc1 [Formula (B), reference compound]
0.71 -	1.04 -	0.48 -	0.74 -	593	0.73 -	1.06 -	0.51 -	0.75 -	594	600	0.74 -	1.07 -	0.54 -	0.81 -	COc1ccc(C2(c3ccc(OC)cc3)C=Cc3c4c(c5ccc(OC)cc5c3O2)-c2ccc(OC)cc2C4(C)C)cc1 [Formula (C), reference compound]
0.78 -	1.14 -	0.57 -	0.86 -	617	0.80 -	1.17 -	0.58 -	0.88 -	617	625	0.80 -	1.18 -	0.62 -	0.94 -	COc1ccc(C2(c3ccc(OC)cc3)C=Cc3c4c(c5ccc(OC)cc5c3O2)-c2ccc(N3CCCCC3)cc2C4(C)C)cc1 [Formula (D), reference compound]
